Legend:
[1] = tested on: massive, pedunculated keloids; settings: BAPN or penicillamine, and colchicine; following excision of keloid and grafting; cited from earlier work
[2] = tested on: systemic LOX; settings: mouse, in vivo; cited from earlier work
[3] = human patients with scleroderma; cited from earlier work
[4] = tested on: lysyl oxidase; settings: various models (e.g. CCl4, bleomycin, quartz, cancer) and tissues (e.g. liver, lung and dermis); cited from earlier work
[5] = Stability in topical formulation (purity profile at room temperature); assay type: physicochemical; settings: for % Purity of Compound 1 in topical formulation: 1% Compound 1
[6] = biological target: T1, Human DAO (Homo sapiens, UniProt P19801); assay: Inhibition of human recombinant DAO; assay type: biochemical; settings: 2 hours incubation; substrate putrescine 200 μM
T1 construct: Prof; Boehm, Department of Clinical Pharmacology, Medical University, Vienna (gift)
T1 sequence (P19801 20-751): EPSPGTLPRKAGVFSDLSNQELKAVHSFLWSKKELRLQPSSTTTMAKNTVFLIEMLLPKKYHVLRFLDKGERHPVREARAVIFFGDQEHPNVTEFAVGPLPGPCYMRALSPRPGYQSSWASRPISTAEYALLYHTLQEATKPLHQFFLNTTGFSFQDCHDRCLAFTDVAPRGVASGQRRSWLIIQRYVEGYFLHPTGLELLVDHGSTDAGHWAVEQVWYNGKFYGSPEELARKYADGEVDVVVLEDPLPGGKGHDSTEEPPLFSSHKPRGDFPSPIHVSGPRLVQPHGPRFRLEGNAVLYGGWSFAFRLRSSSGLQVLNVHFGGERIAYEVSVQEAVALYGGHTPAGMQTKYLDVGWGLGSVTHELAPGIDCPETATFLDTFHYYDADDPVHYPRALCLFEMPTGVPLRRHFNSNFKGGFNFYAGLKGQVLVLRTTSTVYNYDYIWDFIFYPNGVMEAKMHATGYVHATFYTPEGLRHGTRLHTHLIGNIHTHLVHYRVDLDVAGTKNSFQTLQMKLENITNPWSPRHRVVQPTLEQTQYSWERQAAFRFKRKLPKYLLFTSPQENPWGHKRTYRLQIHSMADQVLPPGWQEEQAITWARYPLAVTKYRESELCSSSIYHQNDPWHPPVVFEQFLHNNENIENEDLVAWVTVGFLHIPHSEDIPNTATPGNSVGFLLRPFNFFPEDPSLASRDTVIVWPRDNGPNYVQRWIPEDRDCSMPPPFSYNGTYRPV

[7] = biological target: T2, LOXL2 (Homo sapiens, UniProt Q9Y4K0); assay: Time-dependent inhibition of LOXL2, Amplex Red oxidation assay; assay type: biochemical; settings: for IC50: 37 °C
T2 sequence (Q9Y4K0 26-774): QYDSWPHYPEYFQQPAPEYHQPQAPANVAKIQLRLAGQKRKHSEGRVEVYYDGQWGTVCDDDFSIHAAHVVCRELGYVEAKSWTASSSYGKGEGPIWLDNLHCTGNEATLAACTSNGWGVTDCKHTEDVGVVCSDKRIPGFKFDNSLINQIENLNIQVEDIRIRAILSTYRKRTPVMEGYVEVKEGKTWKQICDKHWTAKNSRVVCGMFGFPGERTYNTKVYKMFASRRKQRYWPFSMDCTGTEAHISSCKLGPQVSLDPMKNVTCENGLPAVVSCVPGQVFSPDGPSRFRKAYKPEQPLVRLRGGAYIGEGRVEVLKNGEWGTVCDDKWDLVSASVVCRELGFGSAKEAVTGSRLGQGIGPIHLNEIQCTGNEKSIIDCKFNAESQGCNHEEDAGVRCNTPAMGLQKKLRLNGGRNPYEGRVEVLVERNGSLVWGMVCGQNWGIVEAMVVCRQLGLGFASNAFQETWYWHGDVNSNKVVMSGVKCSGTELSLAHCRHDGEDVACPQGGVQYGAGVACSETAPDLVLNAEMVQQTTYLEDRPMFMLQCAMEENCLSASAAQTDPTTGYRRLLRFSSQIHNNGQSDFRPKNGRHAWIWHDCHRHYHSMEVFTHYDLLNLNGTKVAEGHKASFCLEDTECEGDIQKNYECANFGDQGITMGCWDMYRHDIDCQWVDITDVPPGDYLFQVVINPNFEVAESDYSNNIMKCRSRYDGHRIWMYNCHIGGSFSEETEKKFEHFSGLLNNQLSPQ
Method: (§1) The time dependent inhibitory effects of the Compound 1 of the present invention were tested against the given LOXL1 preparation and LOXL2 preparation using a method based on the detection of hydrogen peroxide with an Amplex Red oxidation assay [Zhou et al. 1997]. The assay was developed for use in either 384 or 96 well format. Briefly, in a standard black, clear bottom 384 well plate assay 25 µL of a dilution of any of the isoenzymes and orthologues in 1.2 M urea, 50 mM sodium borate buffer (pH 8.2) were added into each well in the presence of […] and 0.5 mM pargyline (to inhibit SSAO and MAO-B and MAO-A, respectively; not necessary if the enzyme is from a recombinant or purified form). Test compound (Compound 1) was dissolved in DMSO and tested in a Concentration Response Curve (CRC) with 11 data points, typically in the micromolar or nanomolar range after incubation with the enzyme for different time points at 37 °C. 25 μL of a reaction mixture containing twice the KM concentration of putrescine (Sigma Aldrich, e.g. 20 mM for LOXL1 or 10 mM for LOXL2), 120 µM Amplex Red (Thermo Fisher Scientific) and 1.5 U/mL horseradish peroxidase (Sigma Aldrich) prepared in 1.2 M urea, 50 mM sodium borate buffer (pH 8.2) were then added to the corresponding wells. The fluorescence (RFU) was read every 2.5 min for 30 min at 37 °C, excitation 544 nm and emission 590 nm (Optima; BMG labtech). The slope/min of the kinetics for each well was calculated using MARS data analysis software (BMG labtech) and this value was used to deduce the IC50 value (Dotmatics).

[8] = tested on: Salmonella typhimurium TA100; assay: Bacterial reverse mutation test, preliminary toxicity test (direct plate incorporation)
Method: In the preliminary toxicity test, for selection of test doses for the mutation assay, Salmonella typhimurium, TA100 was exposed to the test item at 39.0625, 78.125, 156.25, 312.5, 625, 1250, 2500 and 5000 μg/plate along with a DMSO control using direct plate incorporation.

[9] = biological target: T3, Human MAO-B (Homo sapiens, UniProt P27338); assay: Inhibition of human recombinant MAO-B; assay type: biochemical; settings: substrate benzylamine 100 μM
T3 construct: purchased Sigma Aldrich
T3 sequence (P27338 whole entry): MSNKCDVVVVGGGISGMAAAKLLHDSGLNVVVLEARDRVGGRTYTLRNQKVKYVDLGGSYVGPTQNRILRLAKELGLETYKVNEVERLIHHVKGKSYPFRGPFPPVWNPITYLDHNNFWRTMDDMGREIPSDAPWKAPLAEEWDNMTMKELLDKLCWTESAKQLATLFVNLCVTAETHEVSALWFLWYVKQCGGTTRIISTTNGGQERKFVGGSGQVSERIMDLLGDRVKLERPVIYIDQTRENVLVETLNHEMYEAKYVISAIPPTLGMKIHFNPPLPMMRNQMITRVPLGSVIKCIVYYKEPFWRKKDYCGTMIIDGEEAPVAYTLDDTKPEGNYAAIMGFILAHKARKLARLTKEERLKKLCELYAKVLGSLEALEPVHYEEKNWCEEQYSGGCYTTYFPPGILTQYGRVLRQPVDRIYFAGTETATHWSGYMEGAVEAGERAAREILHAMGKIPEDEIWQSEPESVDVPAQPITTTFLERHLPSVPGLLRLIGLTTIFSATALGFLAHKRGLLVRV

[10] = biological target: T4, LOXL1 (Homo sapiens, UniProt Q08397); assay: Time-dependent inhibition of LOXL1, Amplex Red oxidation assay; assay type: biochemical; settings: for IC50: 37 °C
T4 sequence (Q08397 96-574): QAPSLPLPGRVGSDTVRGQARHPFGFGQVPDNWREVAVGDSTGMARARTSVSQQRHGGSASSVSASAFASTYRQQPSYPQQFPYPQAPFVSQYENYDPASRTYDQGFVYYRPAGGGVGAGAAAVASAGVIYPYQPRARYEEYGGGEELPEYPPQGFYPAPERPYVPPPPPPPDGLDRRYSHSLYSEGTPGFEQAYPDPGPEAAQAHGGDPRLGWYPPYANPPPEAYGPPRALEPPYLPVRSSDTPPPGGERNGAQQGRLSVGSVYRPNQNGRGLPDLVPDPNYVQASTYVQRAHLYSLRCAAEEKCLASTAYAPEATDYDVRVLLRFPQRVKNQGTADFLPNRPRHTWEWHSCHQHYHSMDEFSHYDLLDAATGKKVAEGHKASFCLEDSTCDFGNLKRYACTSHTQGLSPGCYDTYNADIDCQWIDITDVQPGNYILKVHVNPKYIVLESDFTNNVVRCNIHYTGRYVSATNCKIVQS
Method: as §1

[11] = apparent potency increasing with time

N#CCCN [BAPN, β-aminopropionitrile, reference compound]
Effect on surface scarring [1]: measurable beneficial effect on surface scarring
Metastasis and survival [2]: reducing metastasis and increasing survival
Tolerability [3]: poorly tolerated
Reduction of collagen content [4]: efficacious in reducing collagen content

NC/C(=C\F)CS(=O)(=O)c1ccccc1 [Compound 1, (E)-3-fluoro-2-((phenylsulfonyl)methyl)prop-2-en-1-amine]
% Purity of Compound 1 in topical formulation ([5]; room temperature, t = 3 months, 129600 min): 99.81%
% Purity of Compound 1 in topical formulation ([5]; room temperature, t = 6 months, 259200 min): 99.82%
% Purity of Compound 1 in topical formulation ([5]; room temperature, t = 9 months, 388800 min): 99.79%
% Purity of Compound 1 in topical formulation ([5]; t = 0): 99.83%
Compound peak percentage in topical formulation ([5]; topical formulation 1, at all tested time points): above 99.5%
IC50 [6]: > 100 µM
IC50 ([7]; 0′ incubation): 14.7 µM
IC50 ([7]; 15′ incubation): 5.58 µM
IC50 ([7]; 30′ incubation): 1.71 µM
IC50 ([7]; 1 h incubation): 0.89 µM
IC50 ([7]; 2 h incubation): 0.41 µM
IC50 ([7]; 4 h incubation): 0.31 µM
Time dependent LOXL2 inhibition [7, 11]: time dependent LOXL1 and LOXL2 inhibition
Toxicity to the tester strain (bacterial background lawn, revertant colony counts) ([8]; 39.0625-5000 μg/plate, presence and absence of metabolic activation): did not exhibit toxicity to the tester strain
Precipitation on the basal agar plates ([8]; up to 5000 μg/plate, presence or absence of metabolic activation): did not precipitate on the basal agar plates
IC50 [9]: > 30 µM
IC50 ([10]; 30′ incubation): 9.47 µM
IC50 ([10]; 2 h incubation): 1.7 µM
IC50 ([10]; 4 h incubation): 0.92 µM
Time dependent LOXL1 inhibition [10, 11]: time dependent LOXL1 and LOXL2 inhibition

Source: patent publication US20260364030A1, “NOVEL SELECTIVE INHIBITORS OF LYSYL OXIDASES” (Syntara Limited, priority 2022, published 2026)
